The source of these data is US20100093867A1, “Method Of Treating Genetic Disease Caused By Nonsense Mutation” (priority 2006, published 2010).

In series [1] the test system is mouse models for muscular dystrophy. The settings on record: Patent document 1; cited from earlier work.
The subject of series [2] is patients with Duchenne muscular dystrophy. The settings on record: Non-patent document 1; cited from earlier work.
Series [3] concerns airway epithelium of patients with cystic fibrosis. The following applies: topical administration to airway epithelium, Non-patent document 2; cited from earlier work.
Series [4] relates to mdx mouse. Nature of the series: Effect of administration on a muscular dystrophy mouse model. The following applies: into the stomach, 4 or 400 mg/kg/day for 7 days. Format: in vivo. As to the method:
The aforementioned compound 2 was studied for its effect of administration on a muscular dystrophy mouse model. An mdx mouse was used as a muscular dystrophy mouse model. The compound 2 was administered forcibly into the stomach of an mdx mouse at a dose of 4 or 400 mg/kg/day for 7 days, and then biochemical and immuno-histochemical analyses were conducted.

The subject of series [5] is mdx mouse. The series can be described thus: Side effects in mice. In kind it is in vivo. The settings on record: subcutaneous, 4 or 400 mg/kg/day for 14 days. The procedure:
The aforementioned compound 2 was studied for side effects in mice.
The compound 2 was injected subcutaneously to an mdx mouse at a dose of 4 or 400 mg/kg/day for 14 days.

As to `CN(CC(=O)O)NC(=O)C[C@H](N)C[C@@H](O)CN` [negamycin], in series [1], the dystrophin expression entry is on record as “restore a dystrophin expression”.

As to gentamicin, the dystrophin protein entry in series [2] was “led to accumulation of dystrophin protein”. For the same molecule, the typical electrophysiological abnormalities entry in series [3] was “could correct”.

With `CC(=O)NC(CC(N)=O)C(=O)O` (stereo not drawn) [compound 2], in series [4], the “results compared to positive control group administered with gentamicin” value was “favorable results compared to a positive control group administered with gentamicin” and the “serum creatine kinase activity” value was “reduced”. Also, the “dystrophin in muscles (e.g. hind limb)” value in series [4] (immuno-histochemical analysis) is on record as “accumulated”. Further, in series [5], the “body weight during the administration period” value is “no decrease” and the “hearing test that measures auditory brainstem response” value is recorded as “no abnormal values”. In addition, the “eighteen serological and biochemical tests” value in series [5] (total protein, albumin, AST, ALT, ALP, γ-GTP, creatinine, glucose, lipids, electrolytes, bilirubin etc.) is recorded as “no abnormal values”.
